Common to all, as to type: cell-based
In experiment [1] the test system is MCF7 cells (ATCC #HTB-22). Kind of experiment: Cellular growth inhibition assay, MCF7 cells purchased from ATCC. The note with it: Homo sapiens, MCF7, 144 h, Table 8-A; MCF7 cells purchased from ATCC; six days; CellTiter-Glo; read-out: GI50. In outline: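 GI50 values come from a four-parameter fit of CellTiter-Glo 2.0 luminescence after six days of compound exposure at 37° C. Seeding density depended on the source: 225 cells/well for ECACC MCF7, 1,500 for ATCC. Medium was RPMI 1640 with 10% FBS and 0.2 U/ml insulin.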
In general terms: Cellular ATP, detected with luciferase, serves as a proxy for viable cell number.

Experiment [2] has as its system T-Rex 293 cells having increased expression of estrogen receptor alpha protein. Kind of experiment: Cellular growth inhibition assay, T-Rex 293 cells, (+) doxycycline. Conditions: T-REx-293, 72 h, 72 hours. In outline: (§1)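 Cells of an inducible ERα-expressing T-Rex 293 clone are seeded in charcoal-dextran FBS medium with or without 3 ng/mL doxycycline, then treated after 24 h with compound dilutions (0.5% DMSO) for 72 h. Growth inhibition is measured by CellTiter-Glo luminescence and expressed as GI50.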

The test system of experiment [3] is T-Rex 293 cells lacking increased expression of estrogen receptor alpha protein. In words: Cellular growth inhibition assay, T-Rex 293 cells, (−) doxycycline. Conditions: T-REx-293, 72 h, 72 hours. The gist of the method: as §1
Where [4] appears, read: T-Rex 293 cells with doxycycline-induced ERα expression, CellTiter-Glo 2.0, read-out: (+) Dox TRex ERa (GI50).
Where [5] appears, read: T-Rex 293 cells without doxycycline, CellTiter-Glo 2.0, read-out: (−) Dox TRex ERa (GI50).

Like-named read-outs stand apart in the source and are kept apart here.

As for `Cc1sc2c(c1C)C(c1ccc(OCCOCCOc3cc(F)c([C@@H]4c5[nH]c6ccccc6c5C[C@@H](C)N4CC(C)(C)F)c(F)c3)cc1)=N[C@@H](C)c1nnc(C)n1-2` [I-23, (S)-4-(4-(2-(2-(3,5-difluoro-4-((1R,3R)-2-(2-fluoro-2-methylpropyl)-3-methyl-2,3,4,9-tetrahydro-1H-pyrido[3,4-b]indol-1-yl)phenoxy)ethoxy)ethoxy)phenyl)-2,3,6,9-tetramethyl-6H-thieno[3,2-f][1,2,4]triazolo[4,3-a][1,4]diazepine], the results for the GI50 in experiment [1], in experiment [2] (setting [4]) and in experiment [3] (setting [5]) were 50 to 500 nM, 500 to 2500 nM and 500 to 2500 nM, respectively.
Take `Cn1cc(-c2cc(C(C)(C)O)ccc2Oc2ccc(CC3CC4(CCN(CCOc5ccc(C(=O)c6c(-c7ccc(O)cc7)sc7cc(O)ccc67)cc5)CC4)C3)cc2)c2cc[nH]c2c1=O` [I-24, 4-(2-(4-((7-(2-(4-(6-hydroxy-2-(4-hydroxyphenyl)benzo[b]thiophene-3-carbonyl)phenoxy)ethyl)-7-azaspiro[3.5]nonan-2-yl)methyl)phenoxy) -5-(2-hydroxypropan-2-yl)phenyl)-6-methyl-1,6-dihydro-7H-pyrrolo[2,3-c]pyridin-7-one]: the GI50 was less than 50 nM in experiment [1], 50 to 500 nM in experiment [2] (setting [4]) and 50 to 500 nM in experiment [3] (setting [5]).
As to `Cc1sc2c(c1C)C(c1ccc(OCCOCCOCCOc3cc(F)c([C@@H]4c5[nH]c6ccccc6c5C[C@@H](C)N4CC(C)(C)F)c(F)c3)cc1)=N[C@@H](C)c1nnc(C)n1-2` [I-25, (S)-4-(4-(2-(2-(2-(3,5-difluoro-4-((1R,3R)-2-(2-fluoro-2-methylpropyl)-3-methyl-2,3,4,9-tetrahydro-1H-pyrido[3,4-b]indol-1-yl)phenoxy)ethoxy)ethoxy)ethoxy)phenyl)-2,3,6,9-tetramethyl-6H-thieno[3,2-f][1,2,4]triazolo[4,3-a][1,4]diazepine], the results for the GI50 in experiment [1], in experiment [2] (setting [4]) and in experiment [3] (setting [5]) were less than 50 nM, 50 to 500 nM and 50 to 500 nM, respectively.
Turning to `Cc1sc2c(c1C)C(c1ccc(N3CCC(CN4CCN(c5ccc([C@@H]6c7ccc8n[nH]cc8c7C[C@@H](C)N6CC(F)(F)F)nc5)CC4)CC3)cc1)=N[C@@H](C)c1nnc(C)n1-2` [I-27, (S)-2,3,6,9-tetramethyl-4-(4-(4-((4-(6-((6S,8R)-8-methyl-7-(2,2,2-trifluoroethyl)-6,7,8,9-tetrahydro-2H-pyrazolo[4,3-f]isoquinolin-6-yl)pyridin-3-yl)piperazin-1-yl)methyl)piperidin-1-yl)phenyl)-6H-thieno[3,2-f][1,2,4]triazolo[4,3-a][1,4]diazepine], the concentration for 50% growth inhibition (GI50) was 50 to 500 nM in experiment [1], less than 50 nM in experiment [2] (setting [4]) and 500 to 2500 nM in experiment [3] (setting [5]).
Take `Cc1sc2c(c1C)C(c1ccc(Cl)cc1)=N[C@@H](CC(=O)NCCCCOCCOc1ccc(C(=O)c3c(-c4ccc(Br)cc4)sc4cc(O)ccc34)cc1)c1nnc(C)n1-2` [I-28, (S)—N-(4-(2-(4-(2-(4-bromophenyl)-6-hydroxybenzo[b]thiophene-3-carbonyl)phenoxy)ethoxy)butyl)-2-(4-(4-chlorophenyl)-2,3,9-trimethyl-6H-thieno[3,2-f][1,2,4]triazolo[4,3-a][1,4]diazepin-6-yl)acetamide]: the GI50 in experiment [1] lay within 50 to 500 nM; in experiment [2] (setting [4]) it was 50 to 500 nM; in experiment [3] (setting [5]), 500 to 2500 nM.
As to `Cc1sc2c(c1C)C(c1ccc(C#CC3CC4(CCN(CCOc5ccc(C(=O)c6c(-c7ccc(O)cc7)sc7cc(O)ccc67)cc5)CC4)C3)cc1)=N[C@@H](C)c1nnc(C)n1-2` [I-29, (S)-(6-hydroxy-2-(4-hydroxyphenyl)benzo[b]thiophen-3-yl)(4-(2-(2-((4-(2,3,6,9-tetramethyl-6H-thieno[3,2-f][1,2,4]triazolo[4,3-a][1,4]diazepin-4-yl)phenyl)ethynyl)-7-azaspiro[3.5]nonan-7-yl)ethoxy)phenyl)methanone], the 50% growth inhibitory concentration (GI50) in experiment [1], in experiment [2] (setting [4]) and in experiment [3] (setting [5]) was less than 50 nM each time.
`Cc1sc2c(c1C)C(c1ccc(CC3CC4(CCN(CCOc5ccc(C(=O)c6c(-c7ccc(O)cc7)sc7cc(O)ccc67)cc5)CC4)C3)cc1)=N[C@@H](Cc1ncco1)c1nnc(C)n1-2` [I-30, (S)-(6-hydroxy-2-(4-hydroxyphenyl)benzo[b]thiophen-3-yl)(4-(2-(2-(4-(2,3,9-trimethyl-6-(oxazol-2-ylmethyl)-6H-thieno[3,2-f][1,2,4]triazolo[4,3-a][1,4]diazepin-4-yl)benzyl)-7-azaspiro[3.5]nonan-7-yl)ethoxy)phenyl)methanone]: the 50% growth inhibitory concentration (GI50) in experiment [1], in experiment [2] (setting [4]) and in experiment [3] (setting [5]) was less than 50 nM each time.
Consider `Cn1cc(-c2cc(C(C)(C)O)ccc2Oc2ccc(C#CC3CC4(CCN(CCOc5ccc(C(=O)c6c(-c7ccc(O)cc7)sc7cc(O)ccc67)cc5)CC4)C3)cc2)c2cc[nH]c2c1=O` [I-31, 4-(2-(4-((7-(2-(4-(6-hydroxy-2-(4-hydroxyphenyl)benzo [b]thiophene-3-carbonyl)phenoxy)ethyl)-7-azaspiro[3.5]nonan-2-yl)ethynyl)phenoxy)-5-(2-hydroxypropan-2-yl)phenyl)-6-methyl-1,6-dihydro-7H-pyrrolo[2,3-c]pyridin-7-one], for which the GI50 was less than 50 nM in experiment [1], less than 50 nM in experiment [2] (setting [4]) and 50 to 500 nM in experiment [3] (setting [5]).
For `Cc1sc2c(c1C)C(c1ccc(OCCOCCCN3CC[C@H](Oc4ccc(C5=C(c6ccc(Cl)cc6Cl)CCCc6cc(C(=O)O)ccc65)cc4)C3)cc1)=N[C@@H](C)c1nnc(C)n1-2` [I-32, 8-(2,4-dichlorophenyl)-9-(4-(((S)-1-(3-(2-(4-((S)-2,3,6,9-tetramethyl-6H-thieno[3,2-f][1,2,4]triazolo[4,3-a][1,4]diazepin-4-yl)phenoxy)ethoxy)propyl)pyrrolidin-3-yl)oxy)phenyl)-6,7-dihydro-5H-benzo[7]annulene-3-carboxylic acid], the concentration for 50% growth inhibition (GI50) in experiment [1] was 50 to 500 nM; in experiment [2] (setting [4]) it was less than 50 nM; in experiment [3] (setting [5]), 500 to 2500 nM.
On the same counts, the results for `Cc1sc2c(c1C)C(c1ccc(OCCOCCOCCCN3CC(Nc4ccc([C@@H]5c6ccc7n[nH]cc7c6C[C@@H](C)N5CC(F)(F)F)nc4)C3)cc1)=N[C@@H](C)c1nnc(C)n1-2` [I-33, 6-((6S,8R)-8-methyl-7-(2,2,2-trifluoroethyl)-6,7,8,9-tetrahydro-2H-pyrazolo[4,3-f]isoquinolin-6-yl)-N-(1-(3-(2-(2-(4-((S)-2,3,6,9-tetramethyl-6H-thieno[3,2-f][1,2,4]triazolo[4,3-a][1,4]diazepin-4-yl)phenoxy)ethoxy)ethoxy)propyl)azetidin-3-yl)pyridin-3-amine] are less than 50 nM, less than 50 nM and greater than 2500 nM.
Consider `CCN(Cc1ccc(CCN2CC[C@@H](OCCOCCOc3ccc(C4=N[C@@H](C)c5nnc(C)n5-c5sc(C)c(C)c54)cc3)C2)cc1)c1cc(OC)ccc1C1CCc2cc(O)ccc2C1` (stereo partly drawn) [I-34a, (R)-6-(2-(ethyl(4-(2-((R)-3-(2-(2-(4-((S)-2,3,6,9-tetramethyl-6H-thieno[3,2-f][1,2,4]triazolo[4,3-a][1,4]diazepin-4-yl)phenoxy)ethoxy)ethoxy)pyrrolidin-1-yl)ethyl)benzyl)amino)-4-methoxyphenyl)-5,6,7,8-tetrahydronaphthalen-2-ol], for which the GI50 lay within 50 to 500 nM in experiment [1]; 50 to 500 nM in experiment [2] (Table 7-A, T-Rex 293 cells with doxycycline (increased ERα expression), CellTiter-Glo, read-out: (+) Dox GI50); 500 to 2500 nM in experiment [3] (Table 7-A, T-Rex 293 cells without doxycycline (lacking increased ERα expression), CellTiter-Glo, read-out: (−) Dox GI50).

As a reminder, the GI50 is the concentration giving 50% growth inhibition.

These data come from patent US12558428B2, “Heterobifunctional compounds and their use in treating disease” (Halda Therapeutics OpCo, Inc., priority 2024, dated 2026).
